Experimental findings from patent publication US20190031717A1, “MULTI-FUNCTIONAL FUSION POLYPEPTIDE, PREPARATION METHOD THEREOF, AND APPLICATION OF SAME” (NANJING ANJI BIOLOGICAL TECHNOLOGY CO., LTD, priority 2016, published 2019) are described below.

What all share (set-up): concentration or dose not given beside the values
One assay concerns Mycoplasma pneumoniae. In words: Mouse pneumonia model, mycoplasma. In kind it is in vivo, BALB/C mice. The note with it: mean ± SD. On the procedure:
(§1) The mouse pneumonia model was successfully established by the nose-drop method. To build the mouse pneumonia model, BALB/C mice with a body mass of 16-22 g were selected and anesthetized pneumonia chain was prepared after anesthesia with ether on day 0, day 1, and day 2. Staphylococcal fluid, adenovirus concentrate, Mycoplasma pneumoniae, Chlamydia pneumoniae, protozoa, and pneumonia fungi were slowly dripped into the nasal cavity of the mice, so that they enter the tracheobronchial. During the operation process, care was exercised to prevent bacterial fluid from flowing into the esophagus, which leads to inactivation the bacterial fluid. After successful model establishment, the polypeptides of the present invention were administered, and the results were shown in Table 5. […] The results were expressed in average value±standard deviation.

Assay [1] concerns Pneumonia caused by lung infection. In words: Mouse pneumonia model, pneumonia caused by lung infection. In kind it is in vivo, BALB/C mice. The note with it: mean ± SD. On the procedure:
as §1

A further assay has as its system Chlamydia pneumoniae. Put plainly: Mouse pneumonia model, chlamydia. In kind it is in vivo, BALB/C mice. The note with it: mean ± SD. On the procedure: as §1
The test system of another assay is Staphylococcal fluid. Put plainly: Mouse pneumonia model, bacterial. The note with it: mean ± SD. In kind it is in vivo, BALB/C mice. Here is the method:
as §1

The test system of the next assay is pneumonia fungi. Put plainly: Mouse pneumonia model, fungal. In kind it is in vivo, BALB/C mice. The note with it: mean ± SD. On the procedure:
as §1

The next assay deals with Brain tumor. Put plainly: MTT assay, tumor cells. The class given is cell-based, human. The note with it: 48 hours, mean ± SD. On the procedure:
(§2) A variety of human tumor cells were cultured in a 37° C., 5% (volume fraction) CO2 incubator to a density of 90% or more, collected by trypsinization, resuspended in a culture medium and counted under a microscope, and the cells were harvested. The concentration was adjusted to 2.0×10^4 cells/mL, the cell suspension was inoculated into a 96-well plate at 100 μL per well and cultured overnight at 37° C. in a 5% (volume fraction) CO2 incubator. After the cells were completely adhered, the polypeptides of the present invention were added as drug-administered groups, and a culture solution containing no drug was used as a blank control group, and the culture solution was diluted to each predetermined concentration. Each dilution was separately added to a 96-well plate at 100 μL per well and incubated for 48 hours at 37° C. in a 5% (volume fraction) CO2 incubator. 20 μL of 5 mg/mL MTT was added to each well of a 96-well plate and incubation was continued for 4 h. The medium was aspirated and dissolved in 100 μL of DMSO per well. The absorbance was measured with a microplate reader at a detection wavelength of 570 nm and a reference wavelength of 630 nm, and the growth inhibition rate was calculated as follows: tumor growth inhibition rate (%)=(1−absorbance value of the administered group/unadministered group absorbance value)×100%, and the experiment was repeated 3 times independently. The results obtained from the test were expressed as mean±standard deviation, and the tumor growth inhibition rate of the unadministered group was 0. The results in Table 7 indicate that the polypeptides of the present invention have a significant inhibitory effect on the growth of various tumors (FIG. 6).
(In general: Tetrazolium assays rely on reduction of a dye to a coloured formazan, in cell work by metabolically active cells.)

Another assay concerns Uterine cancer. Put plainly: MTT assay, tumor cells. In kind it is cell-based, human. The note with it: 48 hours, mean ± SD. Here is the method:
as §2

Another assay concerns Esophageal cancer. Put plainly: MTT assay, tumor cells. In kind it is cell-based, human. The note with it: 48 hours, mean ± SD. Here is the method:
as §2

In another assay the test system is Pancreatic cancer. In words: MTT assay, tumor cells. The note with it: 48 hours, mean ± SD. The class given is cell-based, human. Here is the method:
as §2

The test system of the next assay is Ovarian cancer. In words: MTT assay, tumor cells. The class given is cell-based, human. The note with it: 48 hours, mean ± SD. Here is the method:
as §2

Another assay deals with Cervical cancer. In words: MTT assay, tumor cells. In kind it is cell-based, human. The note with it: 48 hours, mean ± SD. Here is the method: as §2
The test system of the next assay is Melanoma. Put plainly: MTT assay, tumor cells. The class given is cell-based, human. The note with it: 48 hours, mean ± SD. Here is the method:
as §2

The subject of a further assay is sarcoma. In words: MTT assay, tumor cells. The class given is cell-based, human. The note with it: 48 hours, mean ± SD. Here is the method:
as §2

Another assay relates to Colorectal cancer. Put plainly: MTT assay, tumor cells. The class given is cell-based, human. The note with it: 48 hours, mean ± SD. Here is the method: as §2
In a further assay the test system is Hemangioma. In words: MTT assay, tumor cells. The note with it: 48 hours, mean ± SD. The class given is cell-based, human. On the procedure:
as §2

For the next assay, the system named is Breast cancer. Put plainly: MTT assay, tumor cells. In kind it is cell-based, human. The note with it: 48 hours, mean ± SD. On the procedure: as §2
Another assay concerns Prostate cancer. In words: MTT assay, tumor cells. The class given is cell-based, human. The note with it: 48 hours, mean ± SD. On the procedure:
as §2

For the next assay, the system named is Liver cancer. In words: MTT assay, tumor cells. In kind it is cell-based, human. The note with it: 48 hours, mean ± SD. On the procedure: as §2
A further assay concerns Head and neck cancer. Put plainly: MTT assay, tumor cells. The note with it: 48 hours, mean ± SD. The class given is cell-based, human. On the procedure:
as §2

The subject of the next assay is Bladder Cancer. In words: MTT assay, tumor cells. The note with it: 48 hours, mean ± SD. The class given is cell-based, human. Here is the method: as §2
In another assay the test system is Thyroid cancer. In words: MTT assay, tumor cells. The class given is cell-based, human. The note with it: 48 hours, mean ± SD. On the procedure: as §2
The next assay concerns Kidney cancer. Put plainly: MTT assay, tumor cells. In kind it is cell-based, human. The note with it: 48 hours, mean ± SD. Here is the method:
as §2

In another assay the test system is Gastric cancer. In words: MTT assay, tumor cells. In kind it is cell-based, human. The note with it: 48 hours, mean ± SD. On the procedure:
as §2

For the substance “Ile-Val-Arg-Arg-Ala-Asp-Arg-Ala-Ala-Val-Pro-Gly-Gly-Gly-Gly-Pro-(D-Pyr)-(D-Cys)-Bip-Arg-Gly-Glu-Gly-Gly-Gly-Gly-Arg-Gly-Asp [Polypeptide II]”, the “Inhibitory Effects on Various Pulmonary Infections” value (from here on “Inhibitory Effects”) in the assay with Mycoplasma pneumoniae worked out at 39.16 ± 11.16%; in assay [1], 50.81 ± 14.48%; with Chlamydia pneumoniae, 46.02 ± 13.12%; in the assay on Staphylococcal fluid, 43.43 ± 12.38%; in the assay on pneumonia fungi it was 57.52 ± 16.39%. The “tumor growth inhibition rate, MTT Assay” value in the assay with Brain tumor is given as 66.81 ± 15.87%; with Uterine cancer, 64.54 ± 21.82%; in the assay on Esophageal cancer, 64.28 ± 15.27%; in the assay with Pancreatic cancer, 71.93 ± 20.82%; in the assay on Ovarian cancer, 88.74 ± 21.07%; with Cervical cancer, 62.34 ± 24.94%. The “tumor growth inhibition rate, MTT Assay” value in the assay on Melanoma is given as 55.55 ± 13.19%; in the assay on sarcoma, 64.42 ± 15.30%; with Colorectal cancer it was 83.25 ± 19.77%; with Hemangioma it was 84.45 ± 23.67%; in the assay on Breast cancer, 89.43 ± 21.24%; in the assay with Prostate cancer it was 78.96 ± 22.49%. Also, the “tumor growth inhibition rate, MTT Assay” value was 71.24 ± 16.92% in the assay with Liver cancer; 47.44 ± 11.27% in the assay with Head and neck cancer; 50.68 ± 12.04% with Bladder Cancer; 61.18 ± 14.53% with Thyroid cancer; 58.56 ± 17.64% in the assay with Kidney cancer; 63.41 ± 18.79% with Gastric cancer.
On to “Pro-(D-Pyr)-(D-Cys)-Bip-Arg-Gly-Glu-Gly-Gly-Gly-Gly-Arg-Gly-Asp-Gly-Gly-Gly-Gly-Ile-Val-Arg-Arg-Ala-Asp-Arg-Ala-Ala-Val-Pro [Polypeptide VI]”, for which the “Inhibitory Effects” value came to 35.87 ± 12.71% in the assay on Mycoplasma pneumoniae; 46.55 ± 16.44% in assay [1]; 42.16 ± 13.36% with Chlamydia pneumoniae; 39.78 ± 9.86% in the assay with Staphylococcal fluid; 52.69 ± 14.80% with pneumonia fungi. Besides, the “tumor growth inhibition rate, MTT Assay” value in the assay with Brain tumor turned out to be 61.20 ± 13.88%; in the assay on Uterine cancer, 69.77 ± 19.09%; in the assay with Esophageal cancer, 58.88 ± 13.36%; in the assay with Pancreatic cancer, 65.89 ± 18.21%; with Ovarian cancer, 81.29 ± 18.44%; with Cervical cancer, 67.39 ± 21.82%. The “tumor growth inhibition rate, MTT Assay” value amounted to 50.89 ± 11.54% in the assay on Melanoma; 59.01 ± 13.39% in the assay with sarcoma; 76.26 ± 17.30% in the assay with Colorectal cancer; 91.30 ± 20.71% in the assay with Hemangioma; 81.92 ± 18.58% in the assay with Breast cancer; 72.33 ± 19.68% with Prostate cancer. For the same substance, the “tumor growth inhibition rate, MTT Assay” value is recorded as 65.26 ± 14.80% in the assay with Liver cancer; 43.46 ± 9.86% in the assay with Head and neck cancer; 46.43 ± 10.53% with Bladder Cancer; 56.04 ± 12.71% in the assay with Thyroid cancer; 53.64 ± 15.44% in the assay on Kidney cancer; 58.09 ± 16.44% in the assay with Gastric cancer.
For “Pro-(D-Pyr)-(D-Cys)-Bip-Arg-Gly-Glu-Gly-Gly-Gly-Gly-Ile-Val-Arg-Arg-Ala-Asp-Arg-Ala-Ala-Val-Pro-Gly-Gly-Gly-Gly-Arg-Gly-Asp [Polypeptide I]”, the “Inhibitory Effects” value with Mycoplasma pneumoniae is 29.89 ± 12.97%; in [1] it was 38.79 ± 16.78%; in the assay with Chlamydia pneumoniae it was 35.13 ± 13.63%; with Staphylococcal fluid, 33.15 ± 10.06%; with pneumonia fungi, 43.91 ± 15.11%. Further, the “tumor growth inhibition rate, MTT Assay” value turned out to be 51.00 ± 14.17% in the assay on Brain tumor; 58.14 ± 19.48% in the assay on Uterine cancer; 49.07 ± 13.63% with Esophageal cancer; 54.91 ± 18.59% in the assay with Pancreatic cancer; 67.74 ± 18.82% in the assay with Ovarian cancer; 56.16 ± 22.27% with Cervical cancer. Moreover, the “tumor growth inhibition rate, MTT Assay” value is on record as 42.41 ± 11.78% with Melanoma; 49.18 ± 13.66% with sarcoma; 63.55 ± 17.65% in the assay with Colorectal cancer; 76.08 ± 21.13% in the assay with Hemangioma; 68.27 ± 18.96% in the assay on Breast cancer; 60.28 ± 20.08% in the assay with Prostate cancer. In addition, the “tumor growth inhibition rate, MTT Assay” value in the assay with Liver cancer turned out to be 54.38 ± 15.11%; in the assay with Head and neck cancer it was 36.22 ± 10.06%; in the assay with Bladder Cancer, 38.69 ± 10.75%; in the assay on Thyroid cancer, 46.70 ± 12.97%; with Kidney cancer it was 44.70 ± 15.75%; in the assay with Gastric cancer, 48.41 ± 16.78%.
